Counter-ions that a name gives are not always drawn. Like-named read-outs stand apart in the source and are kept apart here. Some results are limits rather than exact numbers.

Test [1] deals with human dopamine transporter (Homo sapiens (Human), UniProt Q01959). The test can be described thus: Dopamine functional uptake assay, recombinant human transporter in CHO-K1 or HEK293 cells. It counts as cell-based. The settings on record: read-out: hDAT IC50.
For test [2], the target named is human serotonin transporter (Homo sapiens (Human), UniProt P31645). The test can be described thus: Serotonin functional uptake assay, recombinant human transporter in HEK-293 cells. The class given is cell-based.
The target of test [3] is DA Transporter (DAT) sites in mouse brain (Mus musculus (Mouse), UniProt Q61327). Kind of test: Ex vivo [3H] WIN 35428 binding to DAT sites in mouse brain after oral dosing. To be noted: mice, 60 min after treatment.
Test [4] deals with 5-HT Transporter (SERT) sites in mouse brain (Mus musculus (Mouse), UniProt Q60857). Kind of test: Ex vivo [3H] citalopram binding to SERT sites in mouse brain after oral dosing. The settings on record: mice, 60 min after treatment.
Where [5] appears, read: Human serotonin transporter uptake, read-out: hSERT IC50.

Sequence of human dopamine transporter (Q01959 whole entry): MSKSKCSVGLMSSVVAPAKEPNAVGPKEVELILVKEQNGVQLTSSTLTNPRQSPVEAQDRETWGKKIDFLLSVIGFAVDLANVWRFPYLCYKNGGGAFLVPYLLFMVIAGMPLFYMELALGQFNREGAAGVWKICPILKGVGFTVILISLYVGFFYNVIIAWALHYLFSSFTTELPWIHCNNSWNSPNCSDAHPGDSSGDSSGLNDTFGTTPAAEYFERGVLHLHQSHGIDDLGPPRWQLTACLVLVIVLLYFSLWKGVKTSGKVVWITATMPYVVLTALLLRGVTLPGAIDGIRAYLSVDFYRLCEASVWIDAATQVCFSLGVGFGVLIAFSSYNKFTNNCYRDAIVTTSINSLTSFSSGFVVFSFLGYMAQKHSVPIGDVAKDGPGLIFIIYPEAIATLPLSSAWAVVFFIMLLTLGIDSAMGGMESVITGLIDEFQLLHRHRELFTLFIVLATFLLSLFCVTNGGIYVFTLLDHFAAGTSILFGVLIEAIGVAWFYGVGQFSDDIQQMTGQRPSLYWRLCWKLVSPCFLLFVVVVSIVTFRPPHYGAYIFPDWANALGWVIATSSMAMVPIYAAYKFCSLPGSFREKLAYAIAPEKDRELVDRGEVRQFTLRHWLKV
Sequence of human serotonin transporter (P31645 whole entry): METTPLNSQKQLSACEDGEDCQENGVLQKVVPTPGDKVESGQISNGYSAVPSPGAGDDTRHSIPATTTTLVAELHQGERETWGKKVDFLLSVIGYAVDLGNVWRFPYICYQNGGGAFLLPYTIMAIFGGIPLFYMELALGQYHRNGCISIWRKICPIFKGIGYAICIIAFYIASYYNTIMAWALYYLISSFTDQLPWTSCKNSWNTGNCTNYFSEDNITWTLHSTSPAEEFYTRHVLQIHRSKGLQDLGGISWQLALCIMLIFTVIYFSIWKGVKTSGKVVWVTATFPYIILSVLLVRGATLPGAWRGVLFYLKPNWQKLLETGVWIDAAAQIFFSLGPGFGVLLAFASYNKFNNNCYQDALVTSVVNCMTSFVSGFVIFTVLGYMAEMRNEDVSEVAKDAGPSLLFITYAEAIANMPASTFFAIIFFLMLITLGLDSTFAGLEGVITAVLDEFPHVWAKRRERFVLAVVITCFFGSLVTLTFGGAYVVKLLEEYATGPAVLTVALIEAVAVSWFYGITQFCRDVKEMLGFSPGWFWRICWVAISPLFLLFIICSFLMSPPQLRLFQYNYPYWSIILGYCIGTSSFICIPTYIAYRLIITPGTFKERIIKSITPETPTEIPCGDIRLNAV

As to `OC1CCCC1NCC1(c2ccc(Cl)c(Cl)c2)CCCCC1` (racemic) [Compound 116, (±) 2-((1-(3,4-dichlorophenyl)cyclohexyl)methylamino)cyclopentanol], the half-maximal inhibitory concentration (IC50) in test [1] was 3 nM; in test [2] (setting [5]), 2060 nM.

Regarding `C[C@@H]1CCCC[C@@]1(CN)c1ccc(Cl)c(Cl)c1` (racemic) [Compound 174, (±)-cis-(1-(3,4-dichlorophenyl)-2-methylcyclohexyl)methanamine hydrochloride], the IC50 in test [1] was determined as 2780 nM; in test [2] (setting [5]) it was 246 nM.

In the case of `C[C@@H]1CCCC[C@@]1(CN(C)C)c1ccc(Cl)c(Cl)c1` (racemic) [Compound 175, (±) cis-1-(1-(3,4-dichlorophenyl)-2-methylcyclohexyl)-N,N-dimethylmethanamine hydrochloride], the half-inhibitory concentration (IC50) in test [1] was determined as 125 nM; in test [2] (setting [5]), 55 nM.

Regarding `CNC[C@@]1(c2ccc(Cl)c(Cl)c2)CCCC[C@H]1C` (racemic) [Compound 176, (±) cis-1-(1-(3,4-dichlorophenyl)-2-methylcyclohexyl)-N-methylmethanamine], the IC50 in test [1] worked out at 775 nM; in test [2] (setting [5]), 533 nM.

For the compound `CCNC[C@@]1(c2ccc(Cl)c(Cl)c2)CCCC[C@H]1C` (racemic) [Compound 177, (±) cis-N-((1-(3,4-dichlorophenyl)-2-methylcyclohexyl)methyl)ethanamine], the IC50 in test [1] amounted to 322 nM; in test [2] (setting [5]) it was 3220 nM.

Consider `CNC(=O)[C@@]1(c2ccc3ccccc3c2)CCCC[C@H]1O` (relative stereo) [Compound 300, cis-2-hydroxy-N-methyl-1-(naphthalen-2-yl)cyclohexanecarboxamide], for which the IC50 in test [1] was 1730 nM; in test [2] (setting [5]), over 10000 nM.

`CNC(C)C1(c2ccc3ccccc3c2)CCCCC1` (single isomer, unassigned) [58 E1, N-methyl-1-(1-(naphthalen-2-yl)cyclohexyl)ethanamine]: the “DAT Mean Specific Binding ± S.E.M.” value stood at 15732 ± 1360 dpm in test [3] (1 mg/kg PO), 14938 ± 2613 dpm in test [3] (3 mg/kg PO), 17215 ± 2151 dpm in test [3] (10 mg/kg PO) and 12876 ± 2152 dpm in test [3] (30 mg/kg PO). Moreover, the receptor occupancy at 1 mg/kg in test [3] (mouse, 1 mg/kg PO) is 7%; in test [4] (mouse, 1 mg/kg PO) it was 5%. Also, the receptor occupancy at 3 mg/kg in test [3] (mouse, 3 mg/kg PO) is 11%; in test [4] (mouse, 3 mg/kg PO), 11%. Also, the receptor occupancy at 10 mg/kg was -2% in test [3] (mouse, 10 mg/kg PO) and 47% in test [4] (mouse, 10 mg/kg PO). In addition, the receptor occupancy at 30 mg/kg in test [3] (mouse, 30 mg/kg PO) was 24%; in test [4] (mouse, 30 mg/kg PO) it was 86%. Also, the “SERT Mean Specific Binding ± S.E.M.” value in test [4] (1 mg/kg PO) was 3245 ± 107 dpm; in test [4] (3 mg/kg PO), 3021 ± 182 dpm; in test [4] (10 mg/kg PO), 1799 ± 115 dpm; in test [4] (30 mg/kg PO), 469 ± 43 dpm.

As for `CNC[C@]1(c2ccc(Cl)cc2)CCCC[C@H]1O` (single isomer, unassigned) [136 E1, trans-2-(4-chlorophenyl)-2-((methylamino)methyl)-cyclohexanol], the IC50 in test [1] was 2870 nM.

As to `CNC[C@]1(c2ccc(Cl)cc2)CCCC[C@H]1O` (single isomer, unassigned) [136 E2, trans-2-(4-chlorophenyl)-2-((methylamino)methyl)-cyclohexanol], the IC50 in test [1] is 3370 nM.

In the case of `CNC[C@]1(c2cccc(Cl)c2)CCCC[C@H]1O` (single isomer, unassigned) [138 E1, trans-2-(3-chlorophenyl)-2-((methylamino)methyl)cyclohexanol], the half-inhibitory concentration (IC50) was 918 nM in test [1] and over 10000 nM in test [2] (hSERT IC50).

For `CNC[C@]1(c2cccc(Cl)c2)CCCC[C@H]1O` (single isomer, unassigned) [138 E2, trans-2-(3-chlorophenyl)-2-((methylamino)methyl)cyclohexanol], the IC50 amounted to 2540 nM in test [1] and 7000 nM in test [2] (setting [5]).

Regarding `CNC[C@]1(c2ccc(OC)cc2)CCCC[C@H]1O` (single isomer, unassigned) [140 E1, (±) trans-2-(4-Methoxyphenyl)-2-((methylamino)methyl)cyclohexanol], the IC50 in test [1] was 8820 nM; in test [2] (setting [5]), 2690 nM.

Regarding `CNC[C@]1(c2ccc(OC)cc2)CCCC[C@H]1O` (single isomer, unassigned) [140 E2, (±) trans-2-(4-Methoxyphenyl)-2-((methylamino)methyl)cyclohexanol], in test [1], the IC50 turned out to be 5670 nM.

As for `CNC[C@@]1(c2ccc(C(F)(F)F)cc2)CCCC[C@H]1O` (single isomer, unassigned) [143 E2, cis-2-((methylamino)methyl)-2-(4-(trifluoromethyl)phenyl)cyclohexanol], the IC50 in test [2] (setting [5]) came to 7170 nM.

For `CNC[C@]1(c2ccc(C(F)(F)F)cc2)CCCC[C@H]1O` (single isomer, unassigned) [144 E1, trans-2-((Methylamino)methyl)-2-(4-(trifluoromethyl)phenyl) cyclohexanol], the IC50 in test [2] (setting [5]) is 5630 nM.

Take `CNC[C@@]1(c2ccc(OC(F)(F)F)cc2)CCCC[C@H]1O` (single isomer, unassigned) [145 E1, cis-2-((Methylamino)methyl)-2-(4-(trifluoromethoxy)phenyl) cyclohexanol]: the IC50 in test [1] was 4730 nM; in test [2] (setting [5]), 75 nM.

For the compound `CNC[C@@]1(c2ccc(OC(F)(F)F)cc2)CCCC[C@H]1O` (single isomer, unassigned) [145 E2, cis-2-((Methylamino)methyl)-2-(4-(trifluoromethoxy)phenyl) cyclohexanol], the IC50 in test [1] was 6520 nM; in test [2] (setting [5]) it was 220 nM.

As for `CNC[C@]1(c2ccc(OC(F)(F)F)cc2)CCCC[C@H]1O` (single isomer, unassigned) [146 E1, trans-2-((Methylamino)methyl)-2-(4-(trifluoromethoxy)phenyl) cyclohexanol], the IC50 in test [2] (setting [5]) came to 4540 nM.

In the case of `CNC[C@]1(c2ccc(OC(F)(F)F)cc2)CCCC[C@H]1O` (single isomer, unassigned) [146 E2, trans-2-((Methylamino)methyl)-2-(4-(trifluoromethoxy)phenyl) cyclohexanol], the IC50 in test [2] (setting [5]) amounted to 2280 nM.

Take `CN(C)C[C@@]1(c2ccc(Cl)c(Cl)c2)CCCC[C@H]1O` (single isomer, unassigned) [152 E1, cis-2-(3,4-dichlorophenyl)-2-((dimethylamino)methyl)cyclohexanol]: the IC50 turned out to be […] in test [1] and 405 nM in test [2] (setting [5]).

With `CN(C)C[C@@]1(c2ccc(Cl)c(Cl)c2)CCCC[C@H]1O` (single isomer, unassigned) [152 E2, cis-2-(3,4-dichlorophenyl)-2-((dimethylamino)methyl)cyclohexanol], the IC50 was found to be […] in test [1] and 77 nM in test [2] (setting [5]).

As for `CN(C)C[C@]1(c2ccc(Cl)c(Cl)c2)CCCC[C@H]1O` (single isomer, unassigned) [153 E1, trans-2-(3,4-dichlorophenyl)-2-((dimethylamino)methyl)cyclohexanol], the IC50 in test [1] came out at […]; in test [2] (setting [5]), 17 nM.

Take `COc1ccc([C@]2(CN(C)C)CCCC[C@H]2O)cc1` (single isomer, unassigned) [155 E1, Cis-2-((dimethylamino)methyl)-2-(4-methoxyphenyl)cyclohexanol]: the 50% inhibitory concentration (IC50) in test [2] (setting [5]) worked out at 2990 nM.

Take `COc1ccc([C@]2(CN(C)C)CCCC[C@H]2O)cc1` (single isomer, unassigned) [155 E2, Cis-2-((dimethylamino)methyl)-2-(4-methoxyphenyl)cyclohexanol]: the IC50 in test [2] (setting [5]) was determined as 6280 nM.

As for `NC[C@]1(c2ccc(Cl)c(Cl)c2)CCC[C@H](O)C1` (single isomer, unassigned) [184 E1, Cis-3-(aminomethyl)-3-(3,4-dichlorophenyl)cyclohexanol], the IC50 in test [1] stood at 213 nM.

Take `NC[C@]1(c2ccc(Cl)c(Cl)c2)CCC[C@H](O)C1` (single isomer, unassigned) [184 E2, Cis-3-(aminomethyl)-3-(3,4-dichlorophenyl)cyclohexanol]: the IC50 in test [1] came out at 789 nM.

Turning to `NC[C@@]1(c2ccc(Cl)c(Cl)c2)CCC[C@H](O)C1` (single isomer, unassigned) [185 E1, Trans-3-(aminomethyl)-3-(3,4-dichlorophenyl)cyclohexanol], the IC50 in test [1] turned out to be 421 nM.

Take `NC[C@@]1(c2ccc(Cl)c(Cl)c2)CCC[C@H](O)C1` (single isomer, unassigned) [185 E2, Trans-3-(aminomethyl)-3-(3,4-dichlorophenyl)cyclohexanol]: the IC50 in test [1] amounted to 121 nM.

Take `CN(C)C[C@]1(c2ccc(Cl)c(Cl)c2)CCC[C@H](O)C1` (single isomer, unassigned) [190 E1, Cis-3-(3,4-dichlorophenyl)-3-((dimethylamino)methyl)cyclohexanol]: the IC50 in test [1] was 24 nM.

As to `CN(C)C[C@@]1(c2ccc(Cl)c(Cl)c2)CCC[C@H](O)C1` (single isomer, unassigned) [191 E2, Trans-3-(3,4-dichlorophenyl)-3-((dimethylamino)methyl)cyclohexanol], in test [1], the IC50 was 2 nM.

As for `CC1(O)CCC(CN)(c2ccc(Cl)c(Cl)c2)CC1` (centres unmarked) [Compound 272, 4-(aminomethyl)-4-(3,4-dichlorophenyl)-1-methylcyclohexanol], the IC50 in test [1] stood at 2600 nM.

As to `CC1(O)CCC(CN)(c2ccc(Cl)c(Cl)c2)CC1` (centres unmarked) [Compound 275, 4-(aminomethyl)-4-(3,4-dichlorophenyl)-1-methylcyclohexanol], the IC50 in test [1] stood at 518 nM.

Regarding `NC[C@]1(c2ccc(Cl)c(Cl)c2)CC[C@H](O)CC1` [Compound 299, (1s,4s)-4-(aminomethyl)-4-(3,4-dichlorophenyl)cyclohexanol], in test [2] (setting [5]), the IC50 was 3870 nM.

Values taken from US10562878B2, “Cycloalkylamines as monoamine reuptake inhibitors” (Sunovion Pharmaceuticals Inc., priority 2006, dated 2020).
